Assay results as given in US20110263539A1, “SHIP 1 MODULATOR COMPOUNDS” (THE UNIVERSITY OF BRITISH COLUMBIA, priority 2006, published 2011).

Columns and labels:
[1] = system: luciferase expressing OPM2 cells; assay: In vivo Multiple Myeloma (MM) assay (Assay 8); design: species or system Mice; conditions: 50 mg/kg every 3 days, subcutaneous oil depot
Procedure: Assay 8) In vivo Multiple Myeloma (MM) assay. Mice were inoculated with at two sites each with 3×10^6 luciferase expressing OPM2 cells suspended in 50 μL of growth medium and 50 μL of Matrigel basement membrane matrix (Becton Dickenson; Bedford, Mass.). Tumors were injected subcutaneously in the upper and lower flanks of the mice and allowed to establish for 2 weeks. After 2 weeks, a test compound or control vehicle was administered in a subcutaneous oil depot at a dose of 50 mg/kg every 3 days.
Tumors were measured using bioluminescence imaging on the Xenogen IVIS 200. Mice received intra-peritoneal injections of 200 μL of D-luciferin at 3.75 mg/mL in sterile PBS. Mice were then anesthetized with isofluorane and imaged 15 minutes post-injection of luciferin. Quantification of tumor size was performed using the Living Image™ software.
MM Xenograft murine model. Mice were inoculated with at two sites each with 3×10^6 luciferase expressing OPM2 cells suspended in 50 μL of growth medium and 50 μL of Matrigel basement membrane matrix (Becton Dickenson; Bedford, Mass.). Tumors were injected subcutaneously in the upper and lower flanks of the mice and allowed to establish for 2 weeks. […]
Tumors were measured using bioluminescence imaging on the Xenogen IVIS 200. […] Quantification of tumor size was performed using the Living Image™ software. […]

J774.1a macrophage cells [2] = assay: Macrophage TNF-α production (Assay 2); assay type: cell-based; conditions: 10 μg/mL test compound, 100 ng/mL LPS, ELISA; further: key: a ‘+’ indicates a positive result for desired activity; a ‘−’ indicates a negative result for desired activity
Procedure: Assay 2) Macrophage TNF-α production. J774.1a macrophage cells were treated with 10 μg/mL of test compound dissolved in solvent (e.g. cyclodextran) for 40 minutes prior to the addition of 100 ng/mL LPS. Culture supernatants were collected after 2 hr and 5 hr for TNF-α determination by ELISA.

J774.1a macrophage cells [3] = assay: Macrophage TNF-α NO assay (Assay 3); assay type: cell-based; conditions: 10 μg/ml test compound, LPS, 24 hr, Griess reagent; further: key: a ‘+’ indicates a positive result for desired activity; a ‘−’ indicates a negative result for desired activity
Procedure: Assay 3) Macrophage TNF-α NO assay. J774.1a macrophage cells were treated with 10 μg/ml of test compound dissolved in solvent for 40 minutes prior to the addition of LPS. Culture supernatants were collected after 24 hr. for determination of NO concentration using the Griess reagent.

[4] = system: neutrophil myeloperoxidase (MPO) activity; assay: Mouse acute cutaneous anaphylaxis model (Assay 5); assay type: in vivo, CD1 mice; conditions: topical on ear, DNFB
Procedure: Assay 5) Mouse acute cutaneous anaphylaxis model. 6-8 week old CD1 mice
(§1) (University of British Columbia Animal Facility, Vancouver, BC) were sensitized to the hapten DNP by cutaneous application of 25 μL of 0.5% dinitrofluorobenzene (DNFB) (Sigma, Oakville, Ont) in acetone to the shaved abdomen of mice for two consecutive days. 24 hrs later, test substances (dissolved in 10 μL of 1:2 DMSO:MeOH) were painted on the right ear while the left ear received vehicle control. 30 min after drug application, DNFB was applied to both ears to induce mast cell degranulation. A 6 mm punch was taken from the ear and immediately frozen on dry ice for subsequent determination of neutrophil myeloperoxidase (MPO) activity.
as §1, with “Mouse acute cutaneous anaphylaxis model. 6-8 week old CD1 mice (University” for “(University”, “activity. Compound 100's ability to inhibit cutaneous anaphylaxis was assessed.” for “activity.”
Anaphylactic or allergic responses are mediated by allergen-induced degranulation of pre-sensitized mast cells. The mouse ear edema/cutaneous anaphylaxis model involves pre-sensitization of mice with the haptenizing agent dinitrofluorobenzene (DNFB). One week later the allergic reaction is elicited by painting DNFB onto the ears of the mice. The efficacy of potential anti-inflammatory compounds is tested by topical application of the test substance to one ear and comparing the resulting ear edema or inflammation of the two ears.

LNCaP cells = assay: PKB activation in LNCaP cells; assay type: cell-based, human; conditions: doses up to 60 μM
Procedure: The ability of AQX-016A to inhibit activation of PIP3-dependent downstream signalling proteins in SHIP^+/+ vs SHIP^−/− cells was assessed. LPS stimulation of macrophages results in PKB phosphorylation. […] Similar protein loading was confirmed by reblotting with either antibodies to PKB or Grb2. […] Thus, AQX-016A inhibits PIP3-regulated intracellular signal transduction events in SHIP expressing hematopoietic cells, but not in SHIP-deficient hematopoietic or non-hematopoietic cells.

MM cell lines = assay: In vitro Multiple Myeloma (MM) assay (Assay 7); assay type: cell-based; further: key: a ‘+’ indicates a positive result for desired activity; a ‘−’ indicates a negative result for desired activity
Procedure: Assay 7) In vitro Multiple Myeloma (MM) assay. The ability of SHIP activators to reduce tumor cell survival was assessed in MM cell lines treated with the test compound. The lines OPM1, OPM2, MM.1S and RPMI 8226 were plated at a density of 1×10^5 cells/mL in 200 μL of medium with various concentrations of the test compound, and viable cell numbers were determined on day 3 and day 5 by trypan blue exclusion. The lines RPMI 8226 and U266 were plated at a density of 1×10^6 cells/mL in 250 μL of medium with various concentrations of the test compound. At day 4, the medium of each culture was replaced by fresh medium containing the same concentration of test compound. At day 7, the viable cell number of each culture was determined by trypan blue exclusion.
MM cell lines were cultured in 96 well plates seeded with 3×10^4 cells suspended in 200 μL of medium along with various concentrations of test compound (and associated cyclodextran vehicle control), with LY294002 serving as a positive control in the experiments. After 24-48 hrs of culture, […] of [3H]-thymidine (GE Healthcare, Baie D'Urfe, Canada) being added for the final 8 hours. Cells were harvested and DNA associated radioactivity was measured via liquid scintillation counting using a Wallac Microbeta counter (Perkin-Elmer; Boston, Mass.).
The ability of SHIP activators to reduce tumor cell survival was assessed in multiple myeloma (MM) cell lines treated with Compound 100 or AQX-016A. The lines OPM1, OPM2, MM.1S and RPMI 8226 were plated at a density of 1×10^5 cells/mL in 200 μL of medium with various concentrations of Compound 100, and viable cell numbers were determined on day 3 and day 5 by trypan blue exclusion. The lines RPMI 8226 and U266 were plated at a density of 1×10^6 cells/mL in 250 μL of medium with various concentrations of AQX-016A. At day 4, the medium of each culture was replaced by fresh medium containing the same concentration of AQX-016A. At day 7, the viable cell number of each culture was determined by trypan blue exclusion. Experiments were performed in triplicate.
Proliferation (DNA synthesis) assays. Proliferation was measured by measuring incorporation of [^3H]-thymidine into cells. MM cell lines were cultured in 96 well plates seeded with 3×10^4 cells suspended in 200 μL, of medium along with various concentrations of Compound 100 or AQX-016A (and associated cyclodextran vehicle control), with LY294002 serving as a positive control in the indicated experiments. After 24-48 hrs of culture, 1 μCi of [^3H]-thymidine (GE Healthcare, Baie D'Urfe, Canada) being added for the final 8 hours. Plates were frozen, which also aided in cell lysis, to terminate the experiments. Cells were then harvested onto glass fibre filters using an automatic cell harvester (TomTech; Orange, Conn.) and DNA associated radioactivity was measured via liquid scintillation counting using a Wallac Microbeta counter (Perkin-Elmer; Boston, Mass.). Wells were set up in triplicate and data is expressed as mean+/−SEM.

[5] = Initial toxicology studies; assay type: in vivo; conditions: data not shown
Excerpt: A novel paradigm for inhibiting PI3K signaling through activation of the phosphatases that negatively regulate this pathway is provided. SHIP is a particularly good target for immune/hematopoietic disorders because of its restricted expression to hematopoietic cells. Because the relative activity of phosphatases present in a cell will influence the efficacy of kinase inhibitors, as discussed by Knight and Shokat, SHIP agonists may also be used to potentiate the activation of PI3K inhibitors and promote tissue targeting of PI3K inhibitors to the ematopoietic/immune cell compartment.

## Cc1cc(O)c(O)c2c1[C@]1(C)CCC3C(C)(C)CCC[C@]3(C)[C@H]1C2 (stereo partly shown) [AQX-016A]
[1]
  Assay Number 8: In vivo Multiple Myeloma (MM) assay: +
J774.1a macrophage cells [2]
  Assay Number 2: Macrophage TNF-α production: +
J774.1a macrophage cells [3]
  Assay Number 3: Macrophage NO: +
[4]
  Assay Number 5: Mouse acute cutaneous anaphylaxis model: +
LNCaP cells
  PKB phosphorylation: no effect
MM cell lines
  Assay Number 7: In vitro Multiple Myeloma (MM) assay: +
[5]
  peripheral blood cell counts or bone marrow progenitor numbers: do not significantly affect
